The numbers were not newly measured in PMC10353187, “Discovery of a new potent oxindole multi-kinase inhibitor among a series of designed 3-alkenyl-oxindoles with ancillary carbonic anhydrase inhibitory activity as antiproliferative agents” (BMC Chemistry, 2023), which cites them from elsewhere.

As a reminder, the Ki is a measure of affinity in units of concentration, obtained from inhibition or displacement. A word on the IC50: it is the point on the concentration scale where inhibition reaches its midpoint.

One data set concerns the target hCA II (Homo sapiens, UniProt P00918). Further details: made in house; method as in PMID 15499993, PMID 12678681, PMID 31313595, PMID 26745009. The settings on record: reported CAIs, Fig. 1; cited from earlier work.
For data set [1] the following is noted: Fig. 1, cited from earlier work.

On to `COc1ccc(C2=NN(c3nc4ccccc4s3)C(c3cc(OC)c(OC)c(OC)c3)C2)cc1` (stereo not drawn) [VIII], for which the Ki on hCA II is 22.7 µM. Moreover, in data set [1], the “Tumor selectivity (TS)” value was 29.3. Moreover, in data set [1] (read-out: Cytotoxicity average IC50), the half-maximal inhibitory concentration (IC50) was 18.7 µM.
